How the values were obtained:
[1] = target: T1, Nucleoside hydrolase NH36 (Leishmania donovani, UniProt Q8WQX2); assay: Ki determination: inhibition of NH36 activity by immucillins; type: biochemical, Leishmania (L.) donovani; conditions: 10 mM inosine as substrate, 0.5 nM NH36, pH 7.4, room temperature
T1 sequence (Q8WQX2 1-314): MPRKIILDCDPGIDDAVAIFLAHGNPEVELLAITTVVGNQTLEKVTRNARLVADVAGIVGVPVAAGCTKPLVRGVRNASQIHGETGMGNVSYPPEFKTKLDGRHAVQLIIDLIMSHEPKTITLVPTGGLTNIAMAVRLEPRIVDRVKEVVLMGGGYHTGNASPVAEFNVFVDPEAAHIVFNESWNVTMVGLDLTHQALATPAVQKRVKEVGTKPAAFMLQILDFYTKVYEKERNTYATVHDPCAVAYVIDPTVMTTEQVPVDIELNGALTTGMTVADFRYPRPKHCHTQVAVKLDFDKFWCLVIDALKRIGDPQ
Description: BL21DE3 E.coli were transformed with the synthetic plasmid pET 28b encoding the gene of NH36 of Leishmania (L.) donovani (EMBL, Genbank and DDJB data bases, access number AY007193) with a His6tag at the C-terminal. Expression was induced with 0.5 mM IPTG and overnight incubation at 20°C. Purification of NH36 was performed on a column of Ni-NTA Superflow resin (Qiagen, USA) eluted by a stepwise imidazole gradient and monitored by SDS-polyacrylamide gel electrophoresis and protein assay. The extinction coefficient of NH36 is 21.437 mM^-1 cm^-1 at 280 nm, as calculated with the ProtParam program from ExPASy, and was used to estimate protein concentration (http://ca.expasy.org/seqanalref/). The yield of NH36 after purification was 11.87 mg per Liter of bacterial growth culture. Non-specific His-proteins with weak interactions were eluted with 50–100 mM imidazole (S1 Fig). The purified NH36 started to elute with 150 mM imidazole. We used 250 mM of imidazol in elution buffer for purification of NH36.
The reaction mixtures contained 10 mM inosine as substrate, 50 mM Hepes (pH 7.4), 100 mM KCl, 5 mM DTT and 1 unit XOD. The hydrolysis of inosine to hypoxanthine and ribose was followed by continuous reading of optical absorbance at 293 nm, using variable concentrations of inhibitors in a CARY 300UV-visible spectrophotometer. Controls without enzyme and without inhibitors were included in all inhibition assays. The inhibition constant for each immucillin was obtained, using GraFit 5 (Erithacus Software), by fitting initial rates with variable inhibitor concentrations to the equation (vi/v0 = [S] / Km + [S] + Km[I] / Ki), where v i is the initial rate in the presence of the inhibitor, v 0 is the initial rate in the absence of the inhibitor, K m is the Michaelis constant for inosine, [S] and [I] are inosine and inhibitor concentrations, respectively, and Ki is the inhibition constant.

[2] = system: L. (L.) infantum chagasi promastigotes; assay: In vitro growth of promastigotes in FBS supplemented Schneider's insect medium; type: cell-based, Leishmania (L.) infantum chagasi; conditions: Leishmania infantum
Excerpt: The strain of Leishmania (L.) infantum chagasi MHOM/BR/1974/PP75 was obtained from the Leishmania Type Culture Collection (Fundacão Oswaldo Cruz, Rio de Janeiro, RJ, Brazil) and the strain of Leishmania (L.) amazonensis (MHOM/BR/1975/Josefa) was kindly given by Professor Rosâ[…] from Universidade Federal do Rio de Janeiro. Promastigotes were maintained by weekly transfers in screw-capped glass tubes containing Schneider's insect medium (Sigma Aldrich, MO, USA), pH 7.0, supplemented with 10% Fetal Bovine Serum (FBS) at 26°C. […] Log phase promastigotes of L. (L.) infantum chagasi and L. […] Promastigotes were recorded in a Neubauer chamber after 24, 48, 72 and 96 hours of incubation at 26°C. […] The concentration of adenosine in Schneider s insect serum supplemented medium was assessed by HPLC using a C-18 reverse-phase column as described.

[3] = system: L. (L.) infantum chagasi promastigotes; assay: Promastigote multiplication in chemically defined RPMI medium; type: cell-based, Leishmania (L.) infantum chagasi
Description: Stock solutions (20 mM) of immucillins IA […] prepared using Milli-Q purified water. Log phase promastigotes of L. (L.) infantum chagasi and L. […] Promastigotes were recorded in a Neubauer chamber after 24, 48, 72 and 96 hours of incubation at 26°C. […] We also assayed the possibility of reversing the inhibitory effect of IA in RPMI medium by the addition of adenosine to the culture medium. The concentration of adenosine in Schneider s insect serum supplemented medium was assessed by HPLC using a C-18 reverse-phase column as described.

[4] = system: L. (L.) infantum chagasi promastigotes; assay: Transmission electron microscopy of treated promastigotes; type: cell-based, Leishmania (L.) infantum chagasi; conditions: 10 μM, 72 h
Excerpt: The cells were washed with Milli Q water, dehydrated in increasing concentration of acetone and embedded in Epon (1: 1) (PolyBed 812). The ultrathin sections were obtained, contrasted with 5% uranyl acetate and lead citrate and observed under a Joel 1200 electron microscope.

[5] = system: intracellular amastigotes of L. (L.) infantum chagasi; assay: Replication of intracellular amastigotes in infected peritoneal macrophages (phagocytic index); type: cell-based, Leishmania (L.) infantum chagasi
Description: […] […] The amastigote growth was assessed 24 h after the last drug addition, on 200 cells in Giemsa stained coverslips and expressed as phagocytic index = percent of infected macrophages x average number of intracellular amastigotes. […] All experiments with mice were reviewed and approved by the Animal Care and Use Committee of the Instituto de Biofísica Carlos Chagas Fo.-UFRJ (CAUAP-CONCEA, Brazil, IMPPG-016) and were performed according to the guidelines of the National Institutes of Health, USA. We made all efforts in order to minimize animal suffering.

Ki [1]: 0.08 µM
IC50 ([3]; Leishmania infantum, RPMI medium lacking nucleosides or nucleobases, 72 h): 75 µM
EC50 ([5]; Leishmania infantum, Peritoneal macrophage, drugs (0.5–10 μM) added at 0 h, incubation 24 h, linear interpolation, read-out: EC50 (CI 95%)): 2.39 µM
SMILES: Nc1ncnc2c(C3N[C@H](CO)[C@@H](O)[C@H]3O)c[nH]c12 (some centres unmarked) [IA]
IC50 ([2]; drugs added at 0, 24 and 48 h, after 48h, read-out: IC50 on promastigote growth, daily addition): 3.6 µM
IC50 ([2]; drugs added at 0, 24 and 48 h, at 72 and 96 h, read-out: IC50 on promastigote growth, daily addition): < 0.05 µM
IC50 ([2]; single addition at 0 h, evaluated after 48 hours, 26°C, read-out: IC50 (CI 95%) on L. (L.) infantum chagasi promastigotes in vitro growth): 23.9 µM
inhibition at 500 µM ([2]; 500 μM, after 96 h of culture, read-out: percent inhibition on L. (L.) infantum chagasi promastigote growth): 78%
inhibition at 10 µM ([3]; Leishmania infantum, 10 μM, 72 h, compared to RPMI with no addition): 38%
inhibition at 50 µM ([3]; Leishmania infantum, 50 μM, 72 h, compared to RPMI with no addition): 46%
reversal of growth inhibition by adenosine ([3]; RPMI with 50 μM IA and 50-500 μM adenosine, 72h): can be reversed by the presence of exogenous adenosine
effect on cellular ultrastructure of promastigotes [4]: global alterations on their cellular morphology
reduction in the number of intracellular amastigotes ([5]; 10 μM added daily at 0, 24 and 48 h): 95%
decrease of intracellular amastigote parasite load ([5]; low micromolar concentrations, single to daily protocol): 74–95%
reduction in the number of intracellular amastigotes ([5]; single 10 μM dose at 0 h, compared to untreated controls): 74%
